Measured values from PubChem BioAssay (NCI).
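48-hour exposure; five concentrations; linearly interpolated endpoints. TGI: concentration producing complete growth inhibition.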

Columns and labels:
Test in all cases: NCI anticancer screen, dose series, 48 h
DLD-1 colon = test system: DLD-1 colon
IGROV1 ovarian = test system: IGROV1 ovarian
CAKI-1 renal = test system: CAKI-1 renal
HT29 colon = test system: HT29 colon
TK-10 renal = test system: TK-10 renal
SNB-78 CNS = test system: SNB-78 CNS
RXF 393 renal = test system: RXF 393 renal
COLO 205 colon = test system: COLO 205 colon
786-0 renal = test system: 786-0 renal
HCT-116 colon = test system: HCT-116 colon
UACC-257 melanoma = test system: UACC-257 melanoma
UO-31 renal = test system: UO-31 renal
SW-620 colon = test system: SW-620 colon
M19-MEL melanoma = test system: M19-MEL melanoma
HOP-62 NSCLC = test system: HOP-62 NSCLC
OVCAR-5 ovarian = test system: OVCAR-5 ovarian
SR leukemia = test system: SR leukemia
SF-539 CNS = test system: SF-539 CNS
EKVX NSCLC = test system: EKVX NSCLC
OVCAR-3 ovarian = test system: OVCAR-3 ovarian
LXFL 529 NSCLC = test system: LXFL 529 NSCLC
DMS 273 small cell lung = test system: DMS 273 small cell lung
SK-OV-3 ovarian = test system: SK-OV-3 ovarian
RPMI-8226 leukemia = test system: RPMI-8226 leukemia
OVCAR-8 ovarian = test system: OVCAR-8 ovarian
MOLT-4 leukemia = test system: MOLT-4 leukemia
A549 NSCLC = test system: A549 NSCLC
KM12 colon = test system: KM12 colon
UACC-62 melanoma = test system: UACC-62 melanoma
HCT-15 colon = test system: HCT-15 colon
HCC-2998 colon = test system: HCC-2998 colon
SK-MEL-5 melanoma = test system: SK-MEL-5 melanoma
HL-60(TB) leukemia = test system: HL-60(TB) leukemia
ACHN renal = test system: ACHN renal
K-562 leukemia = test system: K-562 leukemia
NCI-H460 lung = test system: NCI-H460 lung
SF-268 CNS = test system: SF-268 CNS
SN12C renal = test system: SN12C renal
NCI-H23 lung = test system: NCI-H23 lung
SNB-19 CNS = test system: SNB-19 CNS
KM20L2 colon = test system: KM20L2 colon
U251 CNS = test system: U251 CNS
SF-295 CNS = test system: SF-295 CNS
SK-MEL-28 melanoma = test system: SK-MEL-28 melanoma
SK-MEL-2 melanoma = test system: SK-MEL-2 melanoma
A498 renal = test system: A498 renal
SNB-75 CNS = test system: SNB-75 CNS
MALME-3M melanoma = test system: MALME-3M melanoma
CCRF-CEM leukemia = test system: CCRF-CEM leukemia
HOP-92 NSCLC = test system: HOP-92 NSCLC
DMS 114 small cell lung = test system: DMS 114 small cell lung
NCI-H522 lung = test system: NCI-H522 lung
M14 melanoma = test system: M14 melanoma
XF 498 CNS = test system: XF 498 CNS
NCI-H226 lung = test system: NCI-H226 lung

SMILES: O=C(O)c1nc(-c2ccc(Cl)c(Cl)c2)nc2ccc(Cl)cc12
- TGI (DLD-1 colon): > 100 µM
- TGI (IGROV1 ovarian): > 100 µM
- TGI (CAKI-1 renal): > 100 µM
- TGI (HT29 colon): > 100 µM
- TGI (TK-10 renal): > 100 µM
- TGI (SNB-78 CNS): 77.6 µM
- TGI (RXF 393 renal): 69.4 µM
- TGI (COLO 205 colon): > 100 µM
- TGI (786-0 renal): > 100 µM
- TGI (HCT-116 colon): > 100 µM
- TGI (UACC-257 melanoma): > 100 µM
- TGI (UO-31 renal): > 100 µM
- TGI (SW-620 colon): > 100 µM
- TGI (M19-MEL melanoma): > 100 µM
- TGI (HOP-62 NSCLC): > 100 µM
- TGI (OVCAR-5 ovarian): > 100 µM
- TGI (SR leukemia): > 100 µM
- TGI (SF-539 CNS): > 100 µM
- TGI (EKVX NSCLC): > 100 µM
- TGI (OVCAR-3 ovarian): > 100 µM
- TGI (LXFL 529 NSCLC): > 100 µM
- TGI (DMS 273 small cell lung): > 100 µM
- TGI (SK-OV-3 ovarian): 43.3 µM
- TGI (RPMI-8226 leukemia): > 100 µM
- TGI (OVCAR-8 ovarian): > 100 µM
- TGI (MOLT-4 leukemia): > 100 µM
- TGI (A549 NSCLC): > 100 µM
- TGI (KM12 colon): > 100 µM
- TGI (UACC-62 melanoma): > 100 µM
- TGI (HCT-15 colon): > 100 µM
- TGI (HCC-2998 colon): > 100 µM
- TGI (SK-MEL-5 melanoma): > 100 µM
- TGI (HL-60(TB) leukemia): 54.2 µM
- TGI (ACHN renal): > 100 µM
- TGI (K-562 leukemia): > 10 µM
- TGI (NCI-H460 lung): > 100 µM
- TGI (SF-268 CNS): > 100 µM
- TGI (SN12C renal): > 100 µM
- TGI (NCI-H23 lung): > 100 µM
- TGI (SNB-19 CNS): > 100 µM
- TGI (KM20L2 colon): > 100 µM
- TGI (U251 CNS): > 100 µM
- TGI (SF-295 CNS): > 100 µM
- TGI (SK-MEL-28 melanoma): > 100 µM
- TGI (SK-MEL-2 melanoma): > 100 µM
- TGI (A498 renal): > 100 µM
- TGI (SNB-75 CNS): 35.4 µM
- TGI (MALME-3M melanoma): > 100 µM
- TGI (CCRF-CEM leukemia): > 10 µM

SMILES: CCN(CC)c1oc(N(CC)CC)c(C(=O)Nc2ccccn2)c(=O)c1C(C)=O
- TGI (DLD-1 colon): > 100 µM
- TGI (IGROV1 ovarian): > 100 µM
- TGI (CAKI-1 renal): > 100 µM
- TGI (HT29 colon): > 100 µM
- TGI (TK-10 renal): > 100 µM
- TGI (SNB-78 CNS): > 100 µM
- TGI (HOP-92 NSCLC): > 100 µM
- TGI (COLO 205 colon): > 100 µM
- TGI (786-0 renal): > 100 µM
- TGI (HCT-116 colon): > 100 µM
- TGI (UO-31 renal): > 100 µM
- TGI (SW-620 colon): > 100 µM
- TGI (M19-MEL melanoma): > 100 µM
- TGI (DMS 114 small cell lung): > 100 µM
- TGI (HOP-62 NSCLC): > 100 µM
- TGI (OVCAR-5 ovarian): > 100 µM
- TGI (SR leukemia): > 100 µM
- TGI (SF-539 CNS): > 100 µM
- TGI (EKVX NSCLC): > 100 µM
- TGI (OVCAR-3 ovarian): > 100 µM
- TGI (NCI-H522 lung): > 100 µM
- TGI (LXFL 529 NSCLC): > 100 µM
- TGI (M14 melanoma): > 100 µM
- TGI (DMS 273 small cell lung): > 100 µM
- TGI (SK-OV-3 ovarian): > 100 µM
- TGI (RPMI-8226 leukemia): > 100 µM
- TGI (OVCAR-8 ovarian): > 100 µM
- TGI (MOLT-4 leukemia): > 100 µM
- TGI (A549 NSCLC): > 100 µM
- TGI (KM12 colon): > 100 µM
- TGI (UACC-62 melanoma): > 100 µM
- TGI (HCT-15 colon): > 100 µM
- TGI (SK-MEL-5 melanoma): > 100 µM
- TGI (ACHN renal): > 100 µM
- TGI (K-562 leukemia): > 100 µM
- TGI (NCI-H460 lung): > 100 µM
- TGI (SF-268 CNS): > 100 µM
- TGI (SN12C renal): > 100 µM
- TGI (XF 498 CNS): > 100 µM
- TGI (NCI-H23 lung): > 100 µM
- TGI (SNB-19 CNS): > 100 µM
- TGI (U251 CNS): > 100 µM
- TGI (NCI-H226 lung): > 100 µM
- TGI (SK-MEL-28 melanoma): > 100 µM
- TGI (SK-MEL-2 melanoma): > 100 µM
- TGI (A498 renal): > 100 µM
- TGI (SNB-75 CNS): > 100 µM
- TGI (MALME-3M melanoma): > 100 µM
- TGI (CCRF-CEM leukemia): > 100 µM
